One compound from US20200023067A1, “DUAL-ACTION ELAFIBRANOR METFORMIN SALT FOR TREATING OBESITY ASSOCIATED WITH NON-ALCOHOLIC STEATOHEPATITIS (NASH) AND […]” (NASHPHARM, priority 2016, published 2020) can be followed below.

In brackets after ≈: the same amount, converted by molar mass. Several values for one entry are separate records, joined by “and”; a condition that tells them apart may be missing. Equal values may be shown once. Read-outs that look alike come from different tables or passages of the source.

What all share (type): physicochemical
The nature of data set [1]: Thermodynamic solubility of elafibranor in aqueous buffers and cosolvents. The settings on record: for solubility at 72 h / solubility at 24 h / solubility: 23 °C, thermodynamic from solid; for solubility at 72 h / solubility at 24 h: ambient temperature (22°-24° C.); for solubility at 72 h: read-out: Solubility after 72 hours; for solubility at 24 h: read-out: Solubility after 24 hours. The protocol: The thermodynamic solubility of the basic elafibranor is studied over a period of 24 hours and 72 hours in various aqueous buffers in the presence or not of surfactants. Batch number EM0274L2 is used for this work. After 24 hours and 72 hours of incubation at ambient temperature (22°-24° C.), the solutions are sampled and then filtered over 0.2 μm polycarbonate filters in flasks for LCMS analyses, and diluting once in DMSO before stirring for 2 minutes (vortex or sonification).

Data set [2] can be described thus: Solubility test on the elafibranor (GFT505) metformin salt. As to conditions: aqueous buffer, thermodynamic from solid. The protocol: The solubility kinetics is determined in an aqueous medium (water and pharmacopoeia buffers), at ambient temperature.
Data set [3] can be described thus: Stability after exposure to light and temperature, by UPLC MS. As to conditions: powder form or solution; daylight, ambient temperature; compared with the salt. The protocol: The products were exposed to daylight and to ambient temperature.
The reference samples for their part are stored cool (2°-8° C.), protected from light by aluminum paper and under inert gas for the solid product.

A short description of data set [4]: Thermodynamic solubility of elafibranor in aqueous buffers and cosolvents. The settings on record: for solubility at 24 h: read-out: Solubility after 24 hours.
The nature of data set [5]: Solubility test on the elafibranor (GFT505) metformin salt. As to conditions: organic solvent or mixture, thermodynamic from solid, ambient temperature.
[6] abbreviates: aqueous buffer, aqueous buffer, Buffer pH 4.6.
Where [7] appears, read: aqueous buffer, aqueous buffer, Buffer pH 7.4.
Setting [8] is: aqueous buffer, aqueous buffer, Buffer pH 8.5.

By solubility is commonly meant the dissolved amount per volume that the medium holds. As for `CSc1ccc(C(=O)/C=C/c2cc(C)c(OC(C)(C)C(=O)O)c(C)c2)cc1` [elafibranor, 2-[2,6 dimethyl-4-[3-[4-(methylthio)phenyl]-3-oxo-1(E)-propenyl]phenoxyl]-2-methylpropanoic acid], the solubility at 72 h was 35100 µM and 13500 µg/mL in data set [1] (organic solvent or mixture, Propylene glycol); 110 µM and 42 µg/mL in data set [1] (setting [6]); 609 µM and 234 µg/mL in data set [1] (setting [7]); 4270 µM and 1640 µg/mL in data set [1] (setting [8]); 41000 µM and 15800 µg/mL in data set [4] (23 °C, organic solvent or mixture, thermodynamic from solid, Polyethylene glycol 400, ambient temperature (22°-24° C.), read-out: Solubility after 72 hours). In addition, the solubility at 24 h in data set [1] (setting [6]) is 114 µM and 44 µg/mL; in data set [1] (setting [7]), 504 µM and 194 µg/mL; in data set [1] (setting [8]), 4420 µM and 1700 µg/mL; in data set [4] (23 °C, organic solvent or mixture, thermodynamic from solid, Polyethylene glycol 400, ambient temperature (22°-24° C.)), 39000 µM and 15000 µg/mL; in data set [4] (23 °C, organic solvent or mixture, thermodynamic from solid, Propylene glycol, ambient temperature (22°-24° C.)), 33500 µM and 12900 µg/mL. For the same compound, the solubility in data set [1] (aqueous buffer, pH 4.6, aqueous buffer) was 114 µM (≈ 43.8 µg/mL); in data set [1] (aqueous buffer, pH 8.5, aqueous buffer), 4420 µM (≈ 1700 µg/mL); in data set [2] (Buffer pH 4.6, ambient temperature) it was 114 µM and 44 µg/mL; in data set [2] (Buffer pH 7.4, ambient temperature) it was 504 µM and 194 µg/mL; in data set [2] (Buffer pH 8.5, ambient temperature) it was 4420 µM and 1700 µg/mL; in data set [5] (Polyethylene glycol 400), 39000 µM and 15000 µg/mL. The solubility in data set [5] (Propylene glycol) was 33500 µM and 12900 µg/mL. Moreover, the “Solubility in an aqueous medium” value in data set [1] (aqueous medium) was “low”. Further, the “Sensitivity to light (photosensitivity)” value in data set [3] is “more sensitive to light”. Further, the “Effect of cosolvent on solubility” value in data set [4] (addition of cosolvent such as propylene glycol or PEG 400) is reported as “significantly improves the solubility”.
